Source: patent US8383384B2, “Polypeptide having glycosylation activity on a flavonoid” (Suntory Holdings Limited, priority 2007, dated 2013)

Columns and labels:
TRa2 = test: Glycosyl donor selectivity of TRa2; format: biochemical, Trichoderma viride; conditions: under the conditions shown in the Example section
Source text: Moreover, this enzyme is a glycosyltransferase capable of producing not only sugars composed of one or two glucose molecules, but also glycosides whose sugar chain length is three (G3) or more glucose molecules.

[1] = Heat stability of glycoside (% remaining, HPLC); format: physicochemical; conditions: 100 μM in 10 mM potassium phosphate buffer pH 7.0, 4° C. to 100° C., 0 to 4 hours
Method: After 10 mM potassium phosphate buffer (pH 7.0, 30 μl) containing 100 μM (+)-catechin or 4′-O-α-D-glucopyranosyl-(+)-catechin was treated at different temperatures ranging from 4° C. to 100° C. for 0 to 4 hours, each sample was transferred on ice and mixed with 0.1% TFA (60 μl), followed by HPLC analysis in the same manner as shown in Example 1.

[2] = Solubility in water (HPLC quantification of supernatant); format: physicochemical; conditions: added to water at 10 to 450 mg/ml, vigorous stirring, centrifugation

| Compound | use as glycosyl donor by TRa2 (TRa2) | also measured |
| --- | --- | --- |
| OC[C@H]1O[C@@H]2O[C@H]3[C@H](O)[C@@H](O)[C@@H](O[C@H]4[C@H](O)[C@@H](O)[C@@H](O[C@H]5[C@H](O)[C@@H](O)[C@@H](O[C@H]6[C@H](O)[C@@H](O)[C@@H](O[C@H]7[C@H](O)[C@@H](O)[C@@H](O[C@H]1[C@H](O)[C@H]2O)O[C@@H]7CO)O[C@@H]6CO)O[C@@H]5CO)O[C@@H]4CO)O[C@@H]3CO [α-cyclodextrin] | does not target |  |
| OC[C@H]1O[C@H](Oc2ccc([C@H]3Oc4cc(O)cc(O)c4C[C@@H]3O)cc2O)[C@H](O)[C@@H](O)[C@@H]1O [4′-O-α-D-glucopyranosyl-(+)-catechin] |  | heat stability (% remaining) compared with catechin [1]: more stable against heat than catechin |
| Oc1cc(O)c2c(c1)O[C@H](c1ccc(O)c(O)c1)[C@@H](O)C2 [(+)-catechin] |  | solubility in water [2]: substantially insoluble in water |
| OC[C@H]1O[C@@H]2O[C@H]3[C@H](O)[C@@H](O)[C@@H](O[C@H]4[C@H](O)[C@@H](O)[C@@H](O[C@H]5[C@H](O)[C@@H](O)[C@@H](O[C@H]6[C@H](O)[C@@H](O)[C@@H](O[C@H]7[C@H](O)[C@@H](O)[C@@H](O[C@H]8[C@H](O)[C@@H](O)[C@@H](O[C@H]1[C@H](O)[C@H]2O)O[C@@H]8CO)O[C@@H]7CO)O[C@@H]6CO)O[C@@H]5CO)O[C@@H]4CO)O[C@@H]3CO [β-cyclodextrin] | does not target |  |
| OC[C@H]1O[C@H](Oc2cc(O)cc3c2C[C@H](O)[C@@H](c2ccc(O)c(O)c2)O3)[C@H](O)[C@@H](O)[C@@H]1O [5-O-α-D-glucopyranosyl-(+)-catechin] |  | solubility in water relative to (+)-catechin [2]: at least 40 fold |
| O=C[C@H](O)[C@@H](O)[C@H](O[C@@H]1O[C@H](CO)[C@@H](O)[C@H](O)[C@H]1O)[C@H](O)CO [cellobiose] | does not target |  |
| OC[C@H]1O[C@H](O[C@H]2[C@H](O)[C@@H](O)C(O)O[C@@H]2CO)[C@H](O)[C@@H](O)[C@@H]1O (mixture of isomers) [maltose] | does not target |  |
